Results from ChEMBL document CHEMBL5380778, “Structure-Directed Discovery of Potent Soluble Epoxide Hydrolase Inhibitors for the Treatment of Inflammatory Diseases” (J Med Chem, 2023).

What was measured:
[1] = target: T1, Bifunctional epoxide hydrolase 2 (Mus musculus, UniProt P34914); assay: Inhibition of recombinant mouse soluble epoxide hydrolase using PHOME as substrate assessed as 6-methoxynaphthaldehyde product formation preincubated with compound for 10 mins followed by substrate addition and measured by fluorescence based analysis
T1 sequence (P34914 whole entry): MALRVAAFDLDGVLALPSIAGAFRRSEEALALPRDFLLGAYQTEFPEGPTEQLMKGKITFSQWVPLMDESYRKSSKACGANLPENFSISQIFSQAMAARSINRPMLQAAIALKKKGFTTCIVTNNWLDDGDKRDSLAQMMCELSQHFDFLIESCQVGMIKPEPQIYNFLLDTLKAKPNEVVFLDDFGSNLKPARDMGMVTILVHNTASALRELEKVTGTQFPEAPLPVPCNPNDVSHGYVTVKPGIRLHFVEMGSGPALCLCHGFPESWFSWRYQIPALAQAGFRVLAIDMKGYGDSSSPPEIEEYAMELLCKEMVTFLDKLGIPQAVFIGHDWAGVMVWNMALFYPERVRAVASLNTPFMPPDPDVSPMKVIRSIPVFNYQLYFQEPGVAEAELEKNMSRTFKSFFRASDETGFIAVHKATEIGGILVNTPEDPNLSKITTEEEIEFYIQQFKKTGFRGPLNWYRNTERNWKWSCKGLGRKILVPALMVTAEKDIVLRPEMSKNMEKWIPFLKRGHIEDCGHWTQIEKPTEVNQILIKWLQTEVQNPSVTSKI

[2] = target: T2, Bifunctional epoxide hydrolase 2 (Homo sapiens, UniProt P34913); assay: Inhibition of recombinant human soluble epoxide hydrolase using PHOME as substrate assessed as 6-methoxynaphthaldehyde product formation preincubated with compound for 10 mins followed by substrate addition and measured by fluorescence based analysis
T2 sequence (P34913 whole entry): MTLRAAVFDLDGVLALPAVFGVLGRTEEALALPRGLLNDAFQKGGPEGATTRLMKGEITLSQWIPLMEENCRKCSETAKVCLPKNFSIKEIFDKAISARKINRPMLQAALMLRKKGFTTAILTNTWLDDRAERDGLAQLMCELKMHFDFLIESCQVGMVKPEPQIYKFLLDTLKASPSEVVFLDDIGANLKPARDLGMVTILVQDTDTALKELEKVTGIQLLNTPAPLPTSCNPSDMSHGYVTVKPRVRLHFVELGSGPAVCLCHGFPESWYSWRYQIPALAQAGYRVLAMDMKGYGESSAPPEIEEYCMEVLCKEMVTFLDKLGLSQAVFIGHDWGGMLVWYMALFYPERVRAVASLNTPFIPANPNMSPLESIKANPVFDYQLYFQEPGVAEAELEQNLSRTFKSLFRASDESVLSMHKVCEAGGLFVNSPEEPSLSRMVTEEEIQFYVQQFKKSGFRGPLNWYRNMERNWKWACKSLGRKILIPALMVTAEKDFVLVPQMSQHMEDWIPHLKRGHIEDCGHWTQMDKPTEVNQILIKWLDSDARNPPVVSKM

[3] = Toxicity in mouse assessed as effect on body weight at 200 mg/kg, po administered for 7 days; type: organism-based; conditions: in vivo, 168 h, time 7 day
[4] = Cmax in Sprague-Dawley rat at 10 mg/kg, iv administered as single dose and measured upto 8 hrs by HPLC analysis; type: ADME, organism-based; design: time < 8 hrs, dose 10 mg/kg, route iv; conditions: in vivo
[5] = Metabolic stability in Sprague-Dawley rat liver microsomes assessed as half-life measured upto 60 mins in the presence of NADPH generating system by HPLC analysis; type: ADME, Microsome; conditions: 1 h
[6] = Microsomal stability in Sprague-Dawley rat liver microsomes assessed as mean compound concentration measured after 30 mins in the presence of NADPH-generating system by HPLC analysis (Rvb= 100 ug/ml); type: ADME, Microsome; conditions: 0.5 h
[7] = Tmax in Sprague-Dawley rat at 10 mg/kg, iv administered as single dose and measured upto 8 hrs by HPLC analysis; type: ADME, organism-based; conditions: in vivo
[8] = Toxicity in mouse assessed as tolerance by measuring adverse events at 200 mg/kg, po administered for 7 days; type: organism-based; conditions: in vivo, 168 h, time 7 day
[9] = Clearance in Sprague-Dawley rat at 10 mg/kg, iv administered as single dose and measured upto 8 hrs by HPLC analysis; type: ADME, organism-based; conditions: in vivo
[10] = Oral bioavailability in Sprague-Dawley rat at 50 mg/kg administered as single dose and measured upto 8 hrs by HPLC analysis; type: ADME, organism-based; conditions: in vivo
[11] = Half-life in Sprague-Dawley rat at 50 mg/kg, po administered as single dose and measured upto 8 hrs by HPLC analysis; type: ADME, organism-based; conditions: in vivo
[12] = Apparent volume of distribution in Sprague-Dawley rat at 50 mg/kg, po administered as single dose and measured upto 8 hrs by HPLC analysis; type: ADME, organism-based; conditions: in vivo
[13] = Microsomal stability in human liver microsomes assessed as mean compound concentration measured after 10 mins in the presence of NADPH-generating system by HPLC analysis (Rvb= 100 ug/ml); type: ADME, Microsome
[14] = Microsomal stability in Sprague-Dawley rat liver microsomes assessed as mean compound concentration measured after 10 mins in the presence of NADPH-generating system by HPLC analysis (Rvb= 100 ug/ml); type: ADME, Microsome
[15] = Microsomal stability in human liver microsomes assessed as mean compound concentration measured after 60 mins in the presence of NADPH-generating system by HPLC analysis (Rvb= 100 ug/ml); type: ADME, Microsome; conditions: 1 h
[16] = Clearance in Sprague-Dawley rat at 50 mg/kg, po administered as single dose and measured upto 8 hrs by HPLC analysis; type: ADME, organism-based; conditions: in vivo
[17] = test system: Mus musculus; assay: (§1) Anti-inflammatory activity in L-arginine-induced acute pancreatitis kunming mouse model assessed as reversal of L-arginine induced pancreatic injury by measuring total score at 3 mg/kg, ip pre-treated with L-arginine for 14 hrs followed by compound treatment and measured after 10 hrs by histologic scoring analysis (reference value: 6.25 +/- 0.96); type: functional
[18] = Microsomal stability in human liver microsomes assessed as mean compound concentration measured after 30 mins in the presence of NADPH-generating system by HPLC analysis (Rvb= 100 ug/ml); type: ADME, Microsome; conditions: 0.5 h
[19] = Apparent volume of distribution in Sprague-Dawley rat at 10 mg/kg, iv administered as single dose and measured upto 8 hrs by HPLC analysis; type: ADME, organism-based; conditions: in vivo
[20] = Toxicity in LPS-induced C57BL/6 sepsis mouse model assessed as survival rate at 5 mg/kg, ip administered at 4 and 12 hrs post LPS-induction and measured after 28 hrs relative to control; type: organism-based; conditions: in vivo
[21] = Microsomal stability in Sprague-Dawley rat liver microsomes assessed as mean compound concentration measured after 60 mins in the presence of NADPH-generating system by HPLC analysis (Rvb= 100 ug/ml); type: ADME, Microsome; conditions: 1 h
[22] = Protein binding in Sprague-Dawley rat plasma by equilibrium dialysis; type: ADME, cell-free
[23] = AUC (0 to infinity) in Sprague-Dawley rat at 10 mg/kg, iv administered as single dose and measured upto 8 hrs by HPLC analysis; type: ADME, organism-based; design: dose 10 mg/kg, time < 8 hrs, route iv; conditions: in vivo
[24] = Metabolic stability in human liver microsomes assessed as half-life measured upto 60 mins in the presence of NADPH generating system by HPLC analysis; type: ADME, Microsome; conditions: 1 h
[25] = Tmax in Sprague-Dawley rat at 50 mg/kg, po administered as single dose and measured upto 8 hrs by HPLC analysis; type: ADME, organism-based; conditions: in vivo
[26] = Cmax in Sprague-Dawley rat at 50 mg/kg, po administered as single dose and measured upto 8 hrs by HPLC analysis; type: ADME, organism-based; design: time < 8 hrs, dose 50 mg/kg, route po; conditions: in vivo
[27] = Half-life in Sprague-Dawley rat at 10 mg/kg, iv administered as single dose and measured upto 8 hrs by HPLC analysis; type: ADME, organism-based; conditions: in vivo
[28] = AUC (0 to infinity) in Sprague-Dawley rat at 50 mg/kg, po administered as single dose and measured upto 8 hrs by HPLC analysis; type: ADME, organism-based; design: time < 8 hrs, dose 50 mg/kg, route po; conditions: in vivo
[29] = Toxicity in LPS-induced C57BL/6 sepsis mouse model assessed as survival rate at 5 mg/kg, ip administered at 4 and 12 hrs post LPS-induction and measured after 35 hrs relative to control; type: organism-based; conditions: in vivo
[30] = AUC (0 to 8 hrs) in Sprague-Dawley rat at 50 mg/kg, po administered as single dose and measured upto 8 hrs by HPLC analysis; type: ADME, organism-based; design: dose 50 mg/kg, time < 8 hrs, route po; conditions: in vivo
[31] = AUC (0 to 8 hrs) in Sprague-Dawley rat at 10 mg/kg, iv administered as single dose and measured upto 8 hrs by HPLC analysis; type: ADME, organism-based; design: time < 8 hrs, dose 10 mg/kg, route iv; conditions: in vivo
[32] = test system: Mus musculus; assay: as §1, with “8” for “3”; type: functional

C[C@]12C[C@@H]3C[C@](C)(C1)C[C@@](NC(=O)Nc1ccc(CN4CCCN(C(=O)CC5CCN(CCO)CC5)CC4)cc1F)(C3)C2
IC50 [1]: 0.61 nM | IC50 [2]: 4.69 nM

CCN(CC)CCN1CCC(CC(=O)N2CCCN(Cc3ccc(NC(=O)N[C@@]45C[C@@H]6C[C@@](C)(C[C@@](C)(C6)C4)C5)c(F)c3)CC2)CC1
IC50 [1]: 1.37 nM | IC50 [2]: 2.1 nM

COC(=O)N1CCC(CC(=O)N2CCCN(Cc3ccc(NC(=O)N[C@@]45C[C@@H]6C[C@@](C)(C[C@@](C)(C6)C4)C5)c(F)c3)CC2)CC1
IC50 [1]: 0.41 nM | IC50 [2]: 1.1 nM

CN(C)CCN1CCC(CC(=O)N2CCCN(Cc3ccc(NC(=O)N[C@@]45C[C@@H]6C[C@@](C)(C[C@@](C)(C6)C4)C5)c(F)c3)CC2)CC1
IC50 [1]: 0.67 nM | IC50 [2]: 2.59 nM

CCC(=O)N1CCCN(C(=O)C2CCCN(Cc3ccc(NC(=O)N[C@@]45C[C@@H]6C[C@@](C)(C[C@@](C)(C6)C4)C5)c(F)c3)C2)CC1 (some centres not stated)
Activity [3]: Non-Toxic | Cmax [4]: 3.77 nM | t1/2 [5]: 3.15 h | Stability [6]: 66.63 µg/mL | Tmax [7]: 1.8 min | Activity [8]: Non-Toxic | CL [9]: 4.83 mL/min/kg | F [10]: 20.85% | t1/2 [11]: 5.55 h | Vz [12]: 13.12 L/kg | Stability [13]: 81.12 µg/mL | Stability [14]: 75.04 µg/mL | Stability [15]: 68.78 µg/mL | CL [16]: 28.3 mL/min/kg | IC50 [1]: 0.14 nM | Activity [17]: 4.25 | IC50 [2]: 0.05 nM | Stability [18]: 74.76 µg/mL | Vz [19]: 2.39 L/kg | Activity [20]: 37.5% | Stability [21]: 62.01 µg/mL | PPB [22]: 72.57% | AUC [23]: 11.47 nM·h | t1/2 [24]: 3.7 h | Tmax [25]: 0.25 h | Cmax [26]: 2.92 nM | t1/2 [27]: 5.72 h | AUC [28]: 10.15 nM·h | Activity [29]: 12.5% | AUC [30]: 6.39 nM·h | AUC [31]: 6.13 nM·h | Activity [32]: 3.5

C[C@]12C[C@@H]3C[C@](C)(C1)C[C@@](NC(=O)Nc1ccc(CN4CCCN(C(=O)CC5CCN(CC(O)CO)CC5)CC4)cc1F)(C3)C2 (some centres not stated)
IC50 [1]: 1.25 nM | IC50 [2]: 58.1 nM
